Assays:
[1] = Particle size (mean diameter D[4,3]) by laser light scattering, Malvern Mastersizer MS1; format: physicochemical; details: product as obtained, not micronised
Protocol: According to present invention, when a particles sample is stated to have mean diameter, referred to as D[4,3], higher than X μm, this means that the mean volume of the particles constituting the sample is higher than the volume of a spherical particle with diameter X.
The particle sizes, i.e. mean diameter values D[4,3], were determined with the known technique of laser light scattering using a Malvern Mastersizer MS1 instrumentation under the following operative conditions: • 300RF mm lens with laser beam length of 2.4 mm; • 100 mg sample dispersed in 100 ml of isopar and 0.5 ml of a 2% solution of lecithin in isopar, with 3 min presonication and 2500 rpm stirring rate.

[2] = Stability of the solid form at room temperature; format: physicochemical

| Compound | mean D[4,3] diameter of particles ([1]; listed as Adapalene Amorphous Form) | mean D[4,3] diameter of particles ([1]; listed as Adapalene Crystalline Form α) | mean D[4,3] diameter of particles ([1]; listed as adapalene crystalline Form a) | stability of the polymorphic form [2] |
| --- | --- | --- | --- | --- |
| COc1ccc(-c2ccc3cc(C(=O)O)ccc3c2)cc1C12CC3CC(CC(C3)C1)C2 [adapalene amorphous Form, 6-[3-(1-adamantyl)-4-methoxyphenyl]-2-naphthoic acid] | approx. 15 μm | – | – | – |
| COc1ccc(-c2ccc3cc(C(=O)O)ccc3c2)cc1C12CC3CC(CC(C3)C1)C2 [adapalene crystalline Form α, 6-[3-(1-adamantyl)-4-methoxyphenyl]-2-naphthoic acid] | – | approx. 15 μm | about 15 μm | stable at room temperature |
